Blank lines part the entries; values can stand above or below the compound they belong to.
Columns and labels:
[1] = test system: Trypanosoma cruzi; assay: Antitrypanosomal activity against Trypanosoma cruzi after 24 hrs; type: functional, organism-based
[2] = test system: Trypanosoma cruzi; assay: Antitrypanosomal activity against Trypanosoma cruzi; type: functional, organism-based
[3] = Cytotoxicity against human HepG cells; type: functional, cell-based
[4] = test system: KB; assay: Cytotoxicity against human KB cells; type: functional, cell-based
[5] = test system: HeLa; assay: Cytotoxicity against human HeLa cells; type: functional, cell-based

- IC50 [1]: 284000 nM
SMILES: CC1(C)CCc2c(c3ccccc3c3nc(-c4ccccc4)oc23)O1

- IC50 [2]: 15500 nM
SMILES: Cc1ccc(-c2nc3c([nH]2)c2c(c4ccccc43)OC(C)(C)CC2)cc1

- IC50 [2]: 15400 nM
SMILES: CC1(C)CCc2c(c3ccccc3c3nc(-c4c[nH]c5ccccc45)[nH]c23)O1

SMILES: O=C1C(=O)c2ccccc2C2=C1CCO2
- IC50 [3]: 920 nM
- IC50 [4]: 920 nM
- IC50 [5]: 920 nM

SMILES: O=C1C(=O)c2ccccc2C2=C1CCCO2
- IC50 [3]: 920 nM
- IC50 [4]: 920 nM
- IC50 [5]: 920 nM

- IC50 [2]: 39400 nM
SMILES: CC1(C)CCc2c(c3ccccc3c3nc(-c4ccccc4)[nH]c23)O1

- IC50 [1]: 325000 nM
SMILES: CC1(C)CCc2c(c3ccccc3c3ncoc23)O1
